Assay results reported in ChEMBL document CHEMBL5241104, “Reactive metabolites of the anticonvulsant drugs and approaches to minimize the adverse drug reaction” (Eur J Med Chem, 2021).

Legend:
[1] = test system: Rattus norvegicus; test: Anticonvulsant activity in Sprague-Dawley rat assessed as protection against maximal electroshock induced seizure at ip administration for 0.25 hrs; assay type: functional
[2] = test system: Rattus norvegicus; test: Anticonvulsant activity in Sprague-Dawley rat assessed as protection against hippocampal kindling induced seizure at ip administration for 0.25 hrs; assay type: functional
[3] = test system: Mus musculus; test: Anticonvulsant activity in mouse assessed as protection against Sc-pTZ induced seizure at ip administration for 5 mins; assay type: functional
[4] = test system: Mus musculus; test: Anticonvulsant activity in CD-1 mouse assessed as recovery time against maximal electroshock induced seizure at 150 mg/kg,po administrated for 30 mins; assay type: functional; settings: 0.5 h
[5] = test system: Mus musculus; test: Anticonvulsant activity in CD-1 mouse assessed as recovery time against maximal electroshock induced seizure at 300 mg/kg,po administrated for 30 mins; assay type: functional; settings: 0.5 h
[6] = test system: Mus musculus; test: Anticonvulsant activity in CD-1 mouse assessed as recovery time against maximal electroshock induced seizure at 600 mg/kg,po administrated for 30 mins; assay type: functional; settings: 0.5 h
[7] = test system: Mus musculus; test: Anticonvulsant activity in CD-1 mouse assessed as protection against maximal electroshock induced seizure at po administration for 30 mins; assay type: functional; settings: CD-1, 0.5 h
[8] = test system: Mus musculus; test: Anticonvulsant activity in CD-1 mouse assessed as protection against PTZ induced seizure at po administration for 30 mins; assay type: functional; settings: CD-1, 0.5 h
[9] = Neurotoxicity in CD-1 mouse assessed as reduction in locomotor activity at 600 mg/kg,po administrated for 30 mins; assay type: toxicity, organism-based; set-up: scale not given: the % may be the effect or the level left; settings: in vivo, 0.5 h
[10] = Neurotoxicity in CD-1 mouse assessed as reduction in locomotor activity at 300 mg/kg,po administrated for 30 mins; assay type: toxicity, organism-based; set-up: scale not given: the % may be the effect or the level left; settings: in vivo, 0.5 h
[11] = Neurotoxicity in CD-1 mouse assessed as lethal dose at po administration for 30 mins; assay type: toxicity, organism-based; settings: in vivo
[12] = test system: Mus musculus; test: Anticonvulsant activity in CD-1 mouse assessed as protection against maximal electroshock induced seizure at ip administrated for 30 mins; assay type: functional; settings: CD-1, 0.5 h
[13] = test system: Mus musculus; test: Anticonvulsant activity in CD-1 mouse assessed as protection against Sc-Met induced seizure at ip administrated for 30 mins; assay type: functional; settings: CD-1, 0.5 h
[14] = Toxicity in CD-1 mouse assessed as median toxicity dose at ip administration for 30 mins by rotorod test; assay type: organism-based; settings: in vivo
[15] = Toxicity in Sprague-Dawley rat assessed as median toxic dose at po administrated upto 4 hrs by rotorod test; assay type: organism-based; settings: in vivo
[16] = Protective index, ratio of TD50 for toxicity in Sprague-Dawley rat assessed as median toxicity dose at po administration upto 4 hrs by rotorod test to ED50 for anticonvulsant activity in Sprague-Dawley rat assessed as protection against maximal electroshock induced seizure at po administration upto 4 hrs; assay type: organism-based; settings: in vivo, read-out: Ratio TD50/ED50
[17] = test system: Mus musculus; test: Anticonvulsant activity in CF-1 mouse assessed as protection against maximal electroshock induced seizure at ip administrated upto 4 hrs; assay type: functional
[18] = Toxicity in CF-1 mouse assessed as median toxic dose at ip administrated upto 4 hrs; assay type: organism-based; settings: in vivo
[19] = Protective index, ratio of TD50 for toxicity in CF-1 mouse assessed as median toxicity dose at ip administration upto 4 hrs by rotorod test to ED50 for anticonvulsant activity in CF-1 mouse assessed as protection against maximal electroshock induced seizure at ip administration upto 4 hrs; assay type: organism-based; settings: in vivo, read-out: Ratio TD50/ED50
[20] = test system: Mus musculus; test: Anticonvulsant activity in CD-1 mouse assessed as protection against maximal electroshock induced seizure at ip administrated for 2 hrs; assay type: functional
[21] = test system: Mus musculus; test: Anticonvulsant activity in CD-1 mouse assessed as protection against Sc-PTZ induced seizure at ip administrated for 2 hrs; assay type: functional
[22] = Protective index, ratio of TD50 for toxicity in CD-1 mouse assessed as median toxicity dose at ip administration by rotorod test to ED50 for anticonvulsant activity in CD-1 mouse assessed as protection against maximal electroshock induced seizure at ip administration; assay type: organism-based; settings: in vivo, read-out: Ratio TD50/ED50
[23] = Protective index, ratio of TD50 for toxicity in CD-1 mouse assessed as median toxicity dose at ip administration by rotorod test to ED50 for anticonvulsant activity in CD-1 mouse assessed as protection against Sc-PTZ induced seizure at ip administration; assay type: organism-based; settings: in vivo, read-out: Ratio TD50/ED50
[24] = test system: Rattus norvegicus; test: Anticonvulsant activity in Sprague-Dawley rat assessed as protection against maximal electroshock induced seizure at po administration; assay type: functional
[25] = test system: Mus musculus; test: Anticonvulsant activity in Swiss mouse assessed as protection against Sc-PTZ induced seizure at ip administration; assay type: functional
[26] = Neurotoxicity in Swiss mouse assessed as median toxicity dose at ip administration by rotorod test; assay type: organism-based; settings: in vivo
[27] = test system: Mus musculus; test: Anticonvulsant activity against bicuculline induced Swiss mouse seizure model assessed as inhibition of tonic seizures at 50 mg/kg,ip administration for 30 mins; assay type: functional; settings: 0.5 h
[28] = test system: Mus musculus; test: Anticonvulsant activity against bicuculline induced Swiss mouse seizure model assessed as inhibition of clonic seizures at 50 mg/kg,ip administration for 30 mins; assay type: functional; settings: 0.5 h
[29] = Toxicity in bicuculline induced Swiss mouse seizure model assessed as death at 50 mg/kg,ip administration for 30 mins; assay type: organism-based; settings: in vivo, read-out: Activity
[30] = test system: Mus musculus; test: Anticonvulsant activity against 3-MP induced Swiss mouse seizure model assessed as inhibition of tonic seizures at 50 mg/kg,ip administration for 30 mins; assay type: functional; settings: 0.5 h
[31] = test system: Mus musculus; test: Anticonvulsant activity against 3-MP induced Swiss mouse seizure model assessed as inhibition of clonic seizures at 50 mg/kg,ip administration for 30 mins; assay type: functional; settings: 0.5 h
[32] = Toxicity in 3-MP induced Swiss mouse seizure model assessed as death at 50 mg/kg,ip administration for 30 mins; assay type: organism-based; settings: in vivo, read-out: Activity
[33] = test system: Mus musculus; test: Anticonvulsant activity in Albino mouse assessed as protection against maximal electroshock induced seizure at ip administration; assay type: functional
[34] = test system: Mus musculus; test: Anticonvulsant activity in Albino mouse assessed as protection against Sc-metrazol induced seizure at ip administration; assay type: functional
[35] = test system: Mus musculus; test: Anticonvulsant activity in Albino mouse assessed as protection against 6-Hz psychomotor induced seizure at ip administration; assay type: functional
[36] = test system: Rattus norvegicus; test: Anticonvulsant activity in Sprague-Dawley rat assessed as protection against Sc-metrazol induced seizure at po administration; assay type: functional
[37] = test system: Rattus norvegicus; test: Anticonvulsant activity in Sprague-Dawley rat assessed as protection against pilocarpine induced epilepticus at po administration; assay type: functional
[38] = Neurotoxicity in Sprague-Dawley rat assessed as median toxic dose at ip administration; assay type: toxicity, organism-based; settings: in vivo
[39] = Protective index, ratio of TD50 for toxicity in Sprague-Dawley rat at po administration to ED50 for anticonvulsant activity in Sprague-Dawley rat assessed as protection against pilocarpine induced epilepticus at po administration; assay type: organism-based; settings: in vivo, read-out: Ratio TD50/ED50

CCCC(CCC)C(=O)OCCN(C)C
ED50 [1]: 73 mg/kg | ED50 [2]: 168 mg/kg

CC(C)(C)NC(=O)C(c1cccc(Br)c1)N1Cc2cnnn2-c2cc(Cl)ccc2C1=O (centres undefined)
Activity [3]: 56.94%

CCCC(CCC)C(=O)Nc1ccccc1O
Time [4]: 93.26 s | Time [5]: 30.66 s | Time [6]: 5.75 s | ED50 [7]: 370 mg/kg | ED50 [8]: 348 mg/kg | Activity [9]: 2.78% | Activity [10]: 60% | LD50 at 0.5 h [11]: 937 mg/kg

Cc1cccc(C)c1NC(=O)c1cc(CO)on1
ED50 [12]: 8.7 mg/kg | ED50 [13]: > 30 mg/kg | TD50 at 0.5 h [14]: 28.5 mg/kg

CCOC(=O)C1C(=O)C=C(Nc2cc(C)on2)CC1C (centres undefined)
TD50 at 4 h [15]: > 500 mg/kg | selectivity ratio at 4 h [16]: > 49.6

CC1CC(Nc2ccon2)=CC(=O)C1C(=O)OC(C)(C)C (centres undefined)
ED50 [17]: 28.1 mg/kg | TD50 at 4 h [18]: > 500 mg/kg | selectivity ratio at 4 h [19]: > 17.8

CC1(c2ccccc2)CC(=O)N(CCC(=O)N2CCN(c3ccccc3F)CC2)C1=O (centres undefined)
ED50 [20]: 78.3 mg/kg | ED50 [21]: 114 mg/kg | selectivity ratio [22]: > 3.83 | selectivity ratio [23]: > 2.63

O=C1NC(c2ccccc2)(C2CC2)C(=O)N1CN1CCN(c2ccccc2)CC1 (centres undefined)
ED50 [24]: 5.29 mg/kg

CN1C(=O)CC(=O)N(C)c2cc(NCc3ccc(F)cc3)ccc21
ED50 [25]: 68 mg/kg | TD50 [26]: 164 mg/kg | inhibition in vivo at 50 mg/kg [27]: 100% | inhibition in vivo at 50 mg/kg [28]: 80% | mortality at 0.5 h [29]: 70% | inhibition in vivo at 50 mg/kg [30]: 80% | inhibition in vivo at 50 mg/kg [31]: 100% | mortality at 0.5 h [32]: 20%

CCCC(CC)C(=O)NOC (centres undefined)
ED50 [33]: 142 mg/kg | ED50 [34]: 70 mg/kg | ED50 [35]: 50 mg/kg | ED50 [36]: 36 mg/kg | ED50 [37]: 200 mg/kg | TD50 [38]: 118 mg/kg | selectivity ratio [39]: > 5.5
